Values joined by “and” are separate entries in the source; they are usually repeats but may differ in a detail not shown here. Equal entries are not always repeated.
Experiments:
[1] = tested on: Balb/c mice; assay: Protein overload nephrectomy model; type: in vivo; conditions: day 14, individual mice, Cpd 1 240 mg/kg/day b.i.d. or lisinopril 10 mg/kg/day, oral gavage; for proteinuria / urine creatinine: 24 h urine; for Protein/creatinine: urine ratio
Method: This animal model allows to assess the efficacy of the compound of the invention in renal disease, including renal fibrosis.
This study was undertaken in Balb/c mice (Charles River).
Mice underwent a left unilateral nephrectomy via a short flank incision under anaesthesia.
Sham control mice received an incision only . The mice were allowed to recover from surgery for 7 days.
Drug treatment commenced one day prior to initiation of protein overload.
Each mouse received either Cpd 1 240 mg/kg/day b.i.d. (dosed daily at 8h00 and 15h30), or 10 mg/kg/day Lisinopril (one dose Lisinopril plus one dose of vehicle), or vehicle alone (0.5% methyl cellulose containing 2% Tween 80—two doses) by oral gavage.
Sham mice received vehicle alone. Protein overload was initiated by daily intraperitoneal injections of sterile filtered 450 mg/ml BSA solution in saline (Sigma cat A4919: low endotoxin) starting from 2 mg/g body weight on day one and increasing to 15 mg/g on day 7 until day 14 according to schedule below:
Sham mice received equivalent volumes of saline. After the last injection, mice were housed in metabolic cages for 24 h urine collection.
The mice were then anaesthetized before sacrifice. Blood sample was collected. The remaining right kidneys were perfused with PBS (Sigma 806552)+10 mM EDTA (Invitrogen 15575-02—stock 0.5M) after which they were excised and transverse dissected.
All data were expressed as means±SEM. Results were analysed using GraphPad Prism 8. D'Agostino-Pearson omnibus normality tests were performed to assess normality for data sets >8, while a Shapiro-Wilk test was applied to data sets <8. For multiple comparisons, a one-way ANOVA with Tukey's post hoc correction (parametric) or a Kruskal-Wallis test with Dunn's post hoc test (non-parametric data) were used. ELISA standard curves were plotted using a Sigmoidal4PL fit where x was the log of the standard concentration. Relative mRNA expression levels were calculated according to the Livak equation as 2-ΔCt. A confidence interval of 0.95, p≤0.05, was applied for all statistical tests.
The following endpoints were measured: • Urine Protein concentration mg/mL, • Urine protein/mg creatinine (mg/mg) • serum protein concentration (mg/mL), • urine creatinine concentration (mg/dL)(mg/mL) • Serum creatinine concentration (mg/dL) • Serum urea concentration (mg/dL) • Versikine, NITEGE, ARGS dot blots • Immunohistochemistry: ADAMTS5, Collagen I, Collagen IV, fibronectin, CD45, complement C3, F4/80

[2] = tested on: mdx mice; assay: Duchenne muscular dystrophy mdx model; type: in vivo; set-up: Average force output (grip strength) / Tissue volume / Bone volume: unit not given here; conditions: mean, Cpd 1 120 mg/kg p.o. b.i.d., prednisolone 5 mg/kg p.o. qd; for Av. g/g BW (average force output/g of body weight) / Average force output (grip strength): n = 15
Text: The male mdx mice is the most used animal model for pre-clinical Duchenne muscular dystrophy (DMD) research.
Five-week-old mdx mice (Animal Resource Centre; Perth, WA, Australia) were allowed to acclimatise for 1 week to their surroundings, before being randomly allocated to one of four treatment groups or an untreated control group (15 animals per group) as described in the table below. At the start of the study, these groups were matched for mouse body weight.
The untreated control mdx mice were restrained throughout the study. Following 1-week acclimatisation, this group of mice also have baseline measurements of grip strength and body composition taken, which were repeated at ˜10 weeks and ˜15 weeks of age. Furthermore, these mice were weighed on a regular basis and their urine was collected at ˜6, ˜10 and ˜15 weeks of age. […]
Bone structure was evaluated via μCT analysis of cortical and trabecular bone on the femur.

[3] = tested on: BALB/c (H2^d) mice; assay: Graft versus host (cGvHD) lung model; type: in vivo; conditions: 120 mg/kg p.o. b.i.d., statistically significant
Text: In this cGvHD model, fibrosis was induced in BALB/c (H2^d) mice by allogeneic transplantation of bone marrow cells and splenocytes from B10.D2 (H2^d) donor mice (minor HLA mismatch). The recipient mice develop inflammation-driven dermal and pulmonary fibrosis resembling patients with rapidly progressive diffuse cutaneous systemic sclerosis (Zen et al., 2012).
The treatment was provided only after the onset of first clinical symptoms of sclerodermatous cGvHD.
The following groups with each eight mice were used in this study • Syngeneically transplanted, placebo-treated control group: Syngeneic bone marrow and splenocyte transplantation (BALB/c (H2^d)→BALB/c (H2^d)). Application of methyl cellulose 0.5% from day 21 to day 56 post transplantation. • Vehicle-treated fibrosis group: Allogeneic bone marrow and splenocyte transplantation (B10.D2 (H2^d)→BALB/c (H2^d)). Application of methyl cellulose 0.5% from day 21 to day 56 post transplantation • Control group to assess pretreatment levels of fibrosis induced by allogeneic transplantation: Allogeneic bone marrow and splenocyte transplantation (B10.D2 (H2^d)→BALB/c (H2^d)). Sacrifice at day 21, before treatment was initiated in the other groups. • Treatment group: Allogeneic bone marrow and splenocyte transplantation (B10.D2 (H2^d)→BALB/c (H2^d)). Application of a test compound of the invention from day 21 to day 56 post transplantation. • Positive control group: Allogeneic bone marrow and splenocyte transplantation (B10.D2 (H2^d)→BALB/c (H2^d)). Application of 50 mg/kg qd nintedanib from day 21 to day 56 post transplantation.
Animals were sacrificed 2 h post last dose, and samples of skin (3 mm punch biopsies), lung, spleen and blood were collected for histology and gene expression analysis.
The anti-fibrotic effects on skin were analysed by determination of dermal thickness, quantification of lesional collagen and staining for myofibroblasts.
In case of positive effects on skin fibrosis, effects on pulmonary fibrosis were analysed by Ashcroft scoring, hydroxyproline content, and quantification of the collagen covered area using Sirius red staining
Based on individual animal raw data, the means for each group were determined and percent change from disease controls was calculated. Treatment groups were compared to disease controls using a one-way analysis of variance (1-way ANOVA) with a Dunnett's post-hoc analysis for measured (parametric) data or a Kruskal-Wallis test with a Dunn's post-hoc analysis for scored (non-parametric) data.

[4] = Stability study of the solid forms; type: physicochemical; conditions: for Stability of solid forms under different conditions: result in words
[5] = PK study in human, tablets of Form I and Form II; type: in vivo; conditions: fasted, 300 mg oral
Method: Following a single 300 mg oral administration of Cpd 1 under fasted and/or fed conditions to healthy male subjects (18 subjects per group) as 30% or 50% drug load tablets of crystalline form I and crystalline form II, concentrations of Cpd 1 human plasma concentrations were determined using protein precipitation extraction with liquid chromatography with tandem mass spectrometry (LC-MS/MS) detection.
The lower limit of quantification was 1 ng/mL. In each analytical run, duplicate QC samples were analyzed along with the study samples.
Blood samples (2 mL) for determination of Cpd 1 in plasma were collected at various time points into tubes containing lithium heparin and were immediately chilled (ice bath). Within 30 min after blood collection, the plasma was separated in a refrigerated centrifuge at 4° C. for 10 min at circa 1,500 g.
Predose PK samples were collected within 15 min predose then at the following time points: 0.5 h, 1 h, 1.5 h, 2 h, 2.5 h, 3 h, 4 h, 5 h, 6 h, 8 h, 12 h, 16 h, 24 h, 48 h, 72 h. For all PK samples between 0.5 and 16 h, a window of ±5 min was allowed; for 24- to 72-h samples, a window of ±30 min was allowed.
All statistical analyses were performed using SAS® version 9.4 (or higher) (SAS Institute, Cary, NC, USA) and/or Phoenix WinNonLin (version 8 or higher) software.
All relevant data were documented using summary tables, figures, and subject data listings. […]

[6] = storage 25° C./60% RH - 12 months
[7] = storage 40° C./75% RH - 6 months

Row | SMILES | proteinuria [1] | urine creatinine [1] | serum creatinine [1] | Protein/creatinine [1] | BV/TV (bone volume fraction) ([2]; after treatment) [%] | Bone volume ([2]; after treatment) | Av. g/g BW (average force output/g of body weight) ([2]; mid treatment (4 weeks)) [g/g] | Average force output (grip strength) ([2]; mid treatment (4 weeks)) | Av. g/g BW (average force output/g of body weight) ([2]; post treatment (9 weeks)) [g/g] | Average force output (grip strength) ([2]; post treatment (9 weeks)) | Av. g/g BW (average force output/g of body weight) ([2]; pre-treatment) [g/g] | Average force output (grip strength) ([2]; pre-treatment) | Stability of solid forms under different conditions [4] | Stability [4, 6] [%] | Stability [4, 7] [%] | also measured
1 | NCCCC[C@H](N[C@@H](CCc1ccccc1)C(=O)O)C(=O)N1CCC[C@H]1C(=O)O [lisinopril, reference compound] | 59.1 mg/mL and 128.8 mg/mL and 55.8 mg/mL and 197.6 mg/mL and 71.7 mg/mL and 264.6 mg/mL and 284 mg/mL and 82.1 mg/mL and 80 mg/mL and 79 mg/mL | 0.467 mg/mL and 0.378 mg/mL and 0.32 mg/mL and 0.36 mg/mL and 0.3 mg/mL and 0.34 mg/mL and 0.41 mg/mL and 0.38 mg/mL and 0.22 mg/mL and 0.42 mg/mL | 0.39 mg/dL and 0.41 mg/dL and 0.34 mg/dL and 0.35 mg/dL and 0.25 mg/dL and 0.57 mg/dL (2×) and 0.46 mg/dL and 0.55 mg/dL and 0.54 mg/dL | 127 and 341 and 174 and 552 and 238 and 774 and 700 and 216 and 364 and 188 |  |  |  |  |  |  |  |  |  |  |  | 
2 | C[C@]12C=CC(=O)C=C1CC[C@@H]1[C@@H]2[C@@H](O)C[C@@]2(C)[C@H]1CC[C@]2(O)C(=O)CO [prednisolone, reference compound] |  |  |  |  | 29.84 | 0.70 | 3.44 | 84.86 | 2.93 | 78.84 | 2.83 | 60.55 |  |  |  | 
3 | C[C@H]1CN(C(=O)CC[C@@]2(C3CC3)NC(=O)NC2=O)CCN1c1cc(F)cc(F)c1 [Cpd 1, (5S)-cyclopropyl-5-[3-[(3S)-4-(3,5-difluorophenyl)-3-methyl-piperazin-1-yl]-3-oxo-propyl]imidazolidine-2,4-dione] | 75.2 mg/mL and 54.7 mg/mL and 187 mg/mL and 79.4 mg/mL and 145 mg/mL and 72.4 mg/mL and 143.5 mg/mL and 229.6 mg/mL and 163 mg/mL and 44.4 mg/mL | 0.33 mg/mL and 0.34 mg/mL and 0.38 mg/mL and 0.25 mg/mL (2×) and 0.29 mg/mL and 0.26 mg/mL and 0.297 mg/mL and 0.384 mg/mL and 0.28 mg/mL | 0.43 mg/dL and 0.4 mg/dL and 0.47 mg/dL and 0.44 mg/dL and 0.41 mg/dL and 0.46 mg/dL and 0.39 mg/dL and 0.38 mg/dL and 0.3 mg/dL and 0.37 mg/dL | 229 and 160 and 497 and 321 and 581 and 250 and 550 and 774 and 425 and 159 | 36.09 | 0.80 | 3.72 | 91.88 | 3.86 | 88.24 | 2.86 | 61.13 |  |  |  | Tissue volume ([2]; after treatment): 2.21; reduction of Hydroxyproline content in skin [3]: −8.3%; decrease of Ashcroft score compared to the vehicle group ([3]; lung): −1,3 fold; decrease of collagen-covered lung area compared to the vehicle group ([3]; lung): −1,2 fold; reduction of myofibroblast count ([3]; skin): −35%
4 | C[C@H]1CN(C(=O)CC[C@@]2(C3CC3)NC(=O)NC2=O)CCN1c1cc(F)cc(F)c1 [Form II, (5S)-cyclopropyl-5-[3-[(3S)-4-(3,5-difluorophenyl)-3-methyl-piperazin-1-yl]-3-oxo-propyl]imidazolidine-2,4-dione] |  |  |  |  |  |  |  |  |  |  |  |  | stable | 99.3 | 98.7 | increase in plasma peak exposure (Cmax) compared to polymorphic form I ([5]; 30% load tablet): 34%; increase in plasma peak exposure (Cmax) compared to polymorphic form I ([5]; 50% load tablet): 40%
5 | C[C@H]1CN(C(=O)CC[C@@]2(C3CC3)NC(=O)NC2=O)CCN1c1cc(F)cc(F)c1 [Amorphous, (5S)-cyclopropyl-5-[3-[(3S)-4-(3,5-difluorophenyl)-3-methyl-piperazin-1-yl]-3-oxo-propyl]imidazolidine-2,4-dione] |  |  |  |  |  |  |  |  |  |  |  |  | stable | 100 | 99.3 | 
6 | C[C@H]1CN(C(=O)CC[C@@]2(C3CC3)NC(=O)NC2=O)CCN1c1cc(F)cc(F)c1 [Form I, (5S)-cyclopropyl-5-[3-[(3S)-4-(3,5-difluorophenyl)-3-methyl-piperazin-1-yl]-3-oxo-propyl]imidazolidine-2,4-dione] |  |  |  |  |  |  |  |  |  |  |  |  | stable | 100 | 100 | 

Reference: patent US20240124424A1, “SOLID FORMS OF (5S)-CYCLOPROPYL-5-[3-[(3S)-4-(3,5-DIFLUOROPHENYL)-3-METHYL-PIPERAZIN-1-YL]-3-OXO-PROPYL]IMIDAZOLIDINE-2,4-DIONE” (Galapagos NV, priority 2020, published 2024)
